Experimental findings from US20040116420A1 (priority 2001, published 2004) are described below.

In series [1] the target is T1, HSV-1 protease (Human herpesvirus 1, UniProt P10210).
T1 construct: 6xHis (N); made in house; host or cells: baculovirus expression system
The experiment in a line: Enzymatic assay for HSV-1 protease (assembly) inhibitor, fluorescence polarization. Particulars: read-out: HSV-1 Enzyme inhibition IC50. It is filed as biochemical. The method, boiled down:
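Fluorescence polarization read-out: after avidin stop, cleavage of a biotinylated DTAF-labelled release-site peptide by recombinant N-His6 HSV-1 protease was compared with no-inhibitor wells. Enzyme and compound were preincubated 30 min, then substrate reacted 60 min, all at room temperature, pH 7.4 citrate buffer with TCEP.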
A general note: Polarisation of emitted light reports the rotation of a fluorescent probe.

Series [2] relates to HSV-1. The experiment in a line: Antiviral activity, HSV-1 in Vero cells, plaque method. It is filed as cell-based. Particulars: Human alphaherpesvirus 1, 20 hours, 90% inhibition of plaque formation. The method, boiled down: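 This is a virus-yield read-out. The culture medium was frozen at −80° C and thawed, and the plaques it formed were counted. It came from Vero monolayers infected with 50,000 pfu HSV-1 and then exposed to the compound for 20 h at 37° C. EC90 is the concentration inhibiting 90% of plaque formation relative to the untreated infected control.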

Series [3] relates to Vero cells. In words: Cytotoxicity, Vero cells, Alamar Blue. It is filed as cell-based. To be noted: 25 μM, 20 hours. The method in brief:
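Living-cell ratio versus untreated control was read by Alamar Blue absorbance after about 6 h of dye incubation. Before that, Vero cells had received 25 μM test compound in 2% FBS-DMEM for 20 hours at 37 °C under 5% CO2.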
For orientation: Resazurin is reduced to fluorescent resorufin, in cell work by metabolically active cells.

T1 sequence (P10210 1-247): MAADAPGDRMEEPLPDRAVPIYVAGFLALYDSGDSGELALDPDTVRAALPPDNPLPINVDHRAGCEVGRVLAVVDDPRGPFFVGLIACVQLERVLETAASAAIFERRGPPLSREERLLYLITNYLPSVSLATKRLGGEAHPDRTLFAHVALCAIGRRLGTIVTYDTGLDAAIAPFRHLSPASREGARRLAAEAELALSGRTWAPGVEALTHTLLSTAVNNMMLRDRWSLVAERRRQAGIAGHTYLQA

In the case of `Cc1c(NC(=O)OC(C)(C)C)ccc2nc(N3CCC[C@H]3C(=O)NCCc3ccccn3)oc(=O)c12` [Compound No.89, {5-Methyl-4-oxo-2-[2S-(2-pyridin-2-ylethylcarbamoyl)-pyrrolidin-1-yl]-4H-benzo[d][1,3]oxazin-6-yl}-carbamic acid tert-butyl ester], the IC50 (in general, the midpoint of a concentration-inhibition curve) in series [1] amounted to 1.4 µM. In addition, the 90% effect concentration (EC90) (usually the concentration needed for an effect of 90%) in series [2] was greater than 12.5 µM. In addition, in series [3], the “Cell viability (% of control)” value came out at 92.6%.

In the case of `Cc1c(NC(=O)OC(C)(C)C)ccc2nc(N3CCC[C@H]3C(=O)N(C)Cc3ccccn3)oc(=O)c12` [Compound No.90, {5-Methyl-2-[2S-(methyl-pyridin-2-ylmethyl-carbamoyl)-pyrrolidin-1-yl]-4-oxo-4H-benzo[d][1,3]oxazin-6-yl}-carbamic acid tert-butyl ester], the IC50 in series [1] turned out to be 16.9 µM. In series [2], this molecule came in with an EC90 greater than 12.5 µM. Further, the “Cell viability (% of control)” value in series [3] came to 93.6%.

As for `Cc1c(NC(=O)OC(C)(C)C)ccc2nc(N3CCC[C@H]3C(=O)N(C)CCc3ccccn3)oc(=O)c12` [Compound No.91, (5-Methyl-2-{2S-[methyl-(2-pyridin-2-yl-ethyl)-carbamoyl]-pyrrolidin-1-yl}-4-oxo-4H-benzo[d][1,3]oxazin-6-yl)-carbamic acid tert-butyl ester], the IC50 in series [1] is greater than 20 µM. For the same molecule, the EC90 in series [2] was greater than 12.5 µM. Also, in series [3], the “Cell viability (% of control)” value was determined as 92.3%.

Take `Cc1c(NC(=O)OC(C)(C)C)ccc2nc(N3CCC[C@H]3C(=O)N(C)CCc3cccnc3)oc(=O)c12` [Compound No.92, (5-Methyl-2-{2S-[methyl-(2-pyridin-3-yl-ethyl)-carbamoyl]-pyrrolidin-1-yl}-4-oxo-4H-benzo[d][1,3]oxazin-6-yl)-carbamic acid tert-butyl ester]: the IC50 in series [1] is greater than 20 µM. The EC90 in series [2] was greater than 12.5 µM. The “Cell viability (% of control)” value in series [3] came to 87.2%.

Consider `Cc1c(NC(=O)OC(C)(C)C)ccc2nc(N3CCC[C@H]3C(=O)N(C)CCc3ccncc3)oc(=O)c12` [Compound No.93, (5-Methyl-2-{2S-[methyl-(2-pyridin-4-yl-ethyl)-carbamoyl]-pyrrolidin-1-yl}-4-oxo-4H-benzo[d][1,3]oxazin-6-yl)-carbamic acid tert-butyl ester], for which, in series [1], the IC50 was greater than 20 µM. Moreover, in series [2], the EC90 is greater than 12.5 µM. Moreover, the “Cell viability (% of control)” value in series [3] came to 82.4%.

For `Cc1c(NC(=O)OC(C)(C)C)ccc2nc(N3Cc4ccccc4C[C@H]3C(=O)NCc3ccccn3)oc(=O)c12` [Compound No.94, (5-Methyl-4-oxo-2-{3S-[(pyridin-2-ylmethyl)-carbamoyl]-3,4-dihydro-1H-isoquinolin-2-yl}-4H-benzo[d][1,3]oxazin-6-yl)-carbamic acid tert-butyl ester], in series [1], the IC50 worked out at 2.3 µM. In series [2], this molecule displayed an EC90 of 5.4 µM. Moreover, in series [3], the “Cell viability (% of control)” value worked out at 55.2%.

Turning to `Cc1c(NC(=O)OC(C)(C)C)ccc2nc(N3Cc4ccccc4C[C@H]3C(=O)NCc3cccnc3)oc(=O)c12` [Compound No.95, (5-Methyl-4-oxo-2-{3S-[(pyridin-3-ylmethyl)-carbamoyl]-3,4-dihydro-1H-isoquinolin-2-yl}-4H-benzo[d][1,3]oxazin-6-yl)-carbamic acid tert-butyl ester], in series [1], the IC50 is 4.4 µM. For the same molecule, the 90% effect level in series [2] (EC90) was put at 12.3 µM. In addition, in series [3], the “Cell viability (% of control)” value is 44.0%.

With `Cc1c(NC(=O)OC(C)(C)C)ccc2nc(N3Cc4ccccc4C[C@H]3C(=O)NCc3ccncc3)oc(=O)c12` [Compound No.96, (5-Methyl-4-oxo-2-{3S-[(pyridin-4-ylmethyl)-carbamoyl]-3,4-dihydro-1H-isoquinolin-2-yl}-4H-benzo[d][1,3]oxazin-6-yl)-carbamic acid tert-butyl ester], the concentration for half-maximal inhibition (IC50) in series [1] was 5.5 µM. This molecule registered an EC90 in series [2] of 11.2 µM. Further, the “Cell viability (% of control)” value in series [3] came out at 55.4%.

Regarding `Cc1c(NC(=O)OC(C)(C)C)ccc2nc(N3Cc4ccccc4C[C@H]3C(=O)NCCc3ccccn3)oc(=O)c12` [Compound No.97, {5-Methyl-4-oxo-2-[3S-(2-pyridin-2-yl-ethylcarbamoyl)-3,4-dihydro-1H-isoquinolin-2-yl]-4H-benzo[d][1,3]oxazin-6-yl}-carbamic acid tert-butyl ester], the 50% inhibitory concentration (IC50) in series [1] was determined as 3.3 µM. Further, in series [2], the 90% effect level (EC90) was put at 11 µM. Also, in series [3], the “Cell viability (% of control)” value was 51.3%.

Regarding `Cc1c(NC(=O)OC(C)(C)C)ccc2nc(N3Cc4ccccc4C[C@H]3C(=O)N(C)Cc3ccccn3)oc(=O)c12` [Compound No.98, {5-Methyl-2-[3S-(methyl-pyridin-2-yl-methylcarbamoyl)-3,4-dihydro-1H-isoquinolin-2-yl]-4-oxo-4H-benzo[d][1,3]oxazin-6-yl}-carbamic acid tert-butyl ester], the IC50 in series [1] is 6.1 µM. The same molecule showed a concentration for an effect of 90% (EC90) in series [2] of 5.8 µM. For the same molecule, the “Cell viability (% of control)” value in series [3] amounted to 46.2%.

Consider `Cc1c(NC(=O)OC(C)(C)C)ccc2nc(N3Cc4ccccc4C[C@H]3C(=O)N(C)CCc3ccccn3)oc(=O)c12` [Compound No.99, (5-Methyl-2-{3S-[methyl-(2-pyridin-2-yl-ethyl)-carbamoyl]-3,4-dihydro-1H-isoquinolin-2-yl}-4-oxo-4H-benzo[d][1,3]oxazin-6-yl)-carbamic acid tert-butyl ester], for which the IC50 in series [1] is 5.2 µM. It took 10.1 µM to reach the 90% level in series [2] (EC90). In series [3], the “Cell viability (% of control)” value amounted to 53.2%.

`Cc1c(NC(=O)OC(C)(C)C)ccc2nc(N3Cc4ccccc4C[C@H]3C(=O)N(C)CCc3cccnc3)oc(=O)c12` [Compound No.100, (5-Methyl-2-{3S-[methyl-(2-pyridin-3-yl-ethyl)-carbamoyl]-3,4-dihydro-1H-isoquinolin-2-yl}-4-oxo-4H-benzo[d][1,3]oxazin-6-yl)-carbamic acid tert-butyl ester]: the half-maximal inhibitory concentration (IC50) in series [1] is 9.7 µM. This molecule displayed a concentration for an effect of 90% (EC90) in series [2] of 11.8 µM. For the same molecule, the “Cell viability (% of control)” value in series [3] came out at 44.1%.

With `Cc1c(NC(=O)OC(C)(C)C)ccc2nc(N3Cc4ccccc4C[C@H]3C(=O)N(C)CCc3ccncc3)oc(=O)c12` [Compound No.101, (5-Methyl-2-{3S-[methyl-(2-pyridin-4-yl-ethyl)-carbamoyl]-3,4-dihydro-1H-isoquinolin-2-yl}-4-oxo-4H-benzo[d][1,3]oxazin-6-yl)-carbamic acid tert-butyl ester], the concentration for half-maximal inhibition (IC50) in series [1] was greater than 20 µM. Moreover, in series [2], the EC90 is 8.4 µM. Also, the “Cell viability (% of control)” value in series [3] was 45.5%.

In the case of `Cc1c(NC(=O)OC(C)(C)C)ccc2nc(N3CCCC[C@H]3C(=O)NCc3ccccn3)oc(=O)c12` [Compound No.102, (5-Methyl-4-oxo-2-{2S-[(pyridin-2-ylmethyl)-carbamoyl]-piperidin-1-yl}-4H-benzo[d][1,3]oxazin-6-yl)-carbamic acid tert-butyl ester], the IC50 in series [1] was found to be 1.6 µM. In series [2], this molecule showed an EC90 greater than 12.5 µM. For the same molecule, the “Cell viability (% of control)” value in series [3] amounted to 64.4%.

With `Cc1c(NC(=O)OC(C)(C)C)ccc2nc(N3CCCC[C@H]3C(=O)NCc3cccnc3)oc(=O)c12` [Compound No.103, (5-Methyl-4-oxo-2-{2S-[(pyridin-3-ylmethyl)-carbamoyl]-piperidin-1-yl}-4H-benzo[d][1,3]oxazin-6-yl)-carbamic acid tert-butyl ester], the IC50 in series [1] came out at 2.6 µM. In series [2], the EC90 is greater than 12.5 µM. The “Cell viability (% of control)” value in series [3] was 68.9%.

Take `Cc1c(NC(=O)OC(C)(C)C)ccc2nc(N3CCCC[C@H]3C(=O)NCc3ccncc3)oc(=O)c12` [Compound No.104, (5-Methyl-4-oxo-2-{2S-[(pyridin-4-ylmethyl)-carbamoyl]-piperidin-1-yl}-4H-benzo[d][1,3]oxazin-6-yl)-carbamic acid tert-butyl ester]: the 50% inhibitory concentration (IC50) in series [1] is 4.3 µM. In series [2], this molecule registered an EC90 greater than 12.5 µM. Further, the “Cell viability (% of control)” value in series [3] was found to be 63.0%.

Regarding `Cc1c(NC(=O)OC(C)(C)C)ccc2nc(N3CCCC[C@H]3C(=O)NCCc3ccccn3)oc(=O)c12` [Compound No.105, {5-Methyl-4-oxo-2-[2S-(2-pyridin-2-ylethylcarbamoyl)-piperidin-1-yl]-4H-benzo[d][1,3]oxazin-6-yl}-carbamic acid tert-butyl ester], in series [1], the IC50 amounted to 2.9 µM. In series [2], this molecule had a 90% effect concentration (EC90) greater than 12.5 µM. In series [3], the “Cell viability (% of control)” value came out at 55.6%.

`Cc1c(NC(=O)OC(C)(C)C)ccc2nc(N3CCCC[C@H]3C(=O)N(C)CCc3ccccn3)oc(=O)c12` [Compound No.106, (5-Methyl-2-{2S-[methyl-(2-pyridin-2-yl-ethyl)-carbamoyl]-piperidin-1-yl}-4-oxo-4H-benzo[d][1,3]oxazin-6-yl)-carbamic acid tert-butyl ester]: the half-maximal inhibitory concentration (IC50) in series [1] was 7.6 µM. Further, the EC90 in series [2] is greater than 12.5 µM. The “Cell viability (% of control)” value in series [3] was 53.3%.

For the molecule `Cc1c(NC(=O)OC(C)(C)C)ccc2nc(N3CCCC[C@H]3C(=O)N(C)CCc3cccnc3)oc(=O)c12` [Compound No.107, (5-Methyl-2-{2S-[methyl-(2-pyridin-3-yl-ethyl)-carbamoyl]-piperidin-1-yl}-4-oxo-4H-benzo[d][1,3]oxazin-6-yl)-carbamic acid tert-butyl ester], the IC50 in series [1] stood at 7.4 µM. Besides, in series [2], the concentration for an effect of 90% (EC90) is greater than 12.5 µM. Also, in series [3], the “Cell viability (% of control)” value was 45.4%.
